Patent US20190327974A1, “SYNERGISTS FOR IMPROVED PESTICIDES” (priority 2017, published 2019)

Assays:
[1] = system: Lucilia cuprina larvae, field strain Tara resistant to diazinon; experiment: Lucilia cuprina larval bioassay (pupation rate), field strain; assay type: in vivo
Text: Diazinon resistance is typically associated with the Gly137Asp mutation/resistance allele. […] This is consistent with previous results showing that duplications of the chromosomal region containing αE7 have occurred, meaning that resistant strains now carry copies of both WT and Glyl37Asp LcαE7.
Two strains of L. cuprina were used: 1) a laboratory reference drug-susceptible strain, LS, derived from collections in the Australian Capital Territory over 40 years ago, with no history of exposure to insecticides; and 2) a field-collected strain, Tara, resistant to diazinon and diflubenzuron (Levot, G. W. & Sales, N. New high level resistance to diflubenzuron detected in the Australian sheep blowfly, Lucilia cuprina (Wiedemann) (Diptera: Calliphoridae). Gen. Appl. Entomol. 31, 43-46 (2002)). The LcαE7 gene was sequenced in each of the strains. Briefly, genomic DNA was prepared from 20 adult female flies from each strain using the DNeasy Blood and Tissue kit (Qiagen). PCR was performed with primers specific to the LcαE7 gene, and the product was cloned into a pGEM-T EASY vector (Promega). Eight clones of the susceptible strain and 10 clones of the resistant strain were sequenced using M13 forward and reverse primers.
The effect of compounds 2, 3, 5, 3.9 and 3.10 on the development of blowfly larvae in the presence of diazinon/malathion was assessed using a bioassay system in which larvae were allowed to develop from the first instar stage until pupation on cotton wool impregnated with diazinon/malathion over a range of concentrations, in the presence or absence of the compounds at constant concentrations (Kotze, A. C. et al. Histone deacetylase enzymes as drug targets for the control of the sheep blowfly, Lucilia cuprina. Int. J. Parasitol. Drugs Drug Resist. 5, 201-208 (2015)). Each experiment utilized 50 larvae at each diazinon/malathion concentration. Experiments were replicated three times for diazinon, and twice for malathion. The insecticidal effects were defined by measuring the pupation rate. […] Compounds were also without diazinon or malathion at 1 mg per assay.

[2] = system: panel of 26 human serine or threonine proteases; experiment: Protease selectivity panel as a whole (26 Ser/Thr proteases); assay type: biochemical; details: 100 μM; the 3 proteases inhibited by more than 50%
Method: Test compounds were dissolved in 100% DMSO to make 10 mM stock. Final compound concentration in assay is […]. Compounds were tested in duplicate wells at single concentration and the final concentration of DMSO in all assays was kept at 1%. Five reference compounds, AEBSF, Carfilzomib, Granzyme B Inhibitor II, Dec-RVKR-CMK, and Teneligliptin hydrobromide, were tested in an identical manner with 8 concentration points at 5× dilutions.

[3] = target: Lucilia cuprina αE7 carboxylesterase (LcαE7) variant Gly137Asp (Lucilia cuprina, UniProt Q25252, G137D); experiment: Inhibition of Gly137Asp LcαE7, 4-nitrophenol butyrate hydrolysis; assay type: biochemical
Text: The term “carboxyethylesterase” (CBE), refers to insect carboxylesterases from the alpha and beta and non-microsomal gene clusters, as defined in Oakeshott, Claudianos, Campbell, Newcomb and Russell, “Biochemical Genetic and Genomics of Insect Esterases”, pp 309-381, Chapter 10, Volume 5, 2005, Eds. Gilbert, Iatrou, Gill, published—Elsevier which is incorporated herein by reference. The αE7 CBE is an example of an alpha esterase, and is found in the sheep blowfly, Lucilia cuprina, with homologous genes being present in other insect pests. […]
His6-tagged proteins were expressed in BL21(DE3) E. coli (Invitrogen) at 26° C. for 18 hours. […] Protein concentration was determined by measuring the absorbance at 280 nm with an extinction coefficient calculated using the Protparam online server (Gasteiger, E. et al. Protein identification and analysis tools on the ExPASy server. Proteomics Protoc. Handb. 571-607 (2005). doi:10.1385/1-59259-890-0:571).
Inhibition of wild-type αE7 and the Gly137Asp αE7 variant was determined by a competition assay between the native-substrate analogue 4-nitrophenol butyrate (Sigma) and the boronic acid compounds. Initially, the Michalis constant (KM) with 4-nitrophenol butyrate was measured for both enzymes to determine an appropriate concentration of substrate for use in the competition assays. […]

Sequence of Lucilia cuprina αE7 carboxylesterase (LcαE7) variant Gly137Asp (Q25252 entry or part of it G137D): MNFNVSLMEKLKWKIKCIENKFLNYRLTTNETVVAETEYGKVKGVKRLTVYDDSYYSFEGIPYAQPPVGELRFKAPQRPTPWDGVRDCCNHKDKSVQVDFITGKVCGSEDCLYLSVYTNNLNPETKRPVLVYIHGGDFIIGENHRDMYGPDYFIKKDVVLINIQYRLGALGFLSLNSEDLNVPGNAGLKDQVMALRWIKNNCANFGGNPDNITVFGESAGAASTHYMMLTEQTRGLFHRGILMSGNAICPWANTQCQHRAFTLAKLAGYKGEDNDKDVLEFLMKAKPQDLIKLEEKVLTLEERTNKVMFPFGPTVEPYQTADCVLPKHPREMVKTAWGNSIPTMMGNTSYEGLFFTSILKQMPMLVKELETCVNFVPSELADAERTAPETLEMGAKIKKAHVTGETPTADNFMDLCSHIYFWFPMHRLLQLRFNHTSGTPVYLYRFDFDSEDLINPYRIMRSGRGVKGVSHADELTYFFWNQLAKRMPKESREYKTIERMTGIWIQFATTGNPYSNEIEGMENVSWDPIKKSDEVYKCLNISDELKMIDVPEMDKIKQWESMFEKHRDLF

Structure (SMILES) | reduction of diazinon EC50 compared to a diazinon only control ([1]; field strain) [fold] | sensitivity of field strain to diazinon compared to the laboratory strain treated with only diazinon ([1]; fold more sensitive) [fold] | residual activity of the inhibited proteases [2] | inhibition of Gly137Asp LcαE7 [3]
OB(O)c1cc(Br)cc(Oc2ccccc2)c1 [Compound 3.10, 3-Bromo-5-phenoxyfenylboronic acid] | 12 | 4 |  | 
OB(O)c1cc(Br)cc(N2CCCC2)c1 [Compound 3] |  |  | at least 30% | poor inhibitor of Gly137Asp LcαE7
